Literature values, collected in US7662371B2, “Composition for lowering the concentration of intestinal pathogenic peptides” (Neurozym Biotech AS, priority 2001, dated 2010).

Details: oral treatment, regressive-onset autism

SMILES: CN[C@H](CC(C)C)C(=O)N[C@H]1C(=O)N[C@@H](CC(N)=O)C(=O)N[C@H]2C(=O)N[C@H]3C(=O)N[C@H](C(=O)N[C@H](C(=O)O)c4cc(O)cc(O)c4-c4cc3ccc4O)[C@H](O)c3ccc(c(Cl)c3)Oc3cc2cc(c3O[C@@H]2O[C@H](CO)[C@@H](O)[C@H](O)[C@H]2O[C@H]2C[C@](C)(N)[C@H](O)[C@H](C)O2)Oc2ccc(cc2Cl)[C@H]1O [vancomycin]
- improvement, number of children: 8 of 10
